What was measured:
[1] = system: ABCG1; assay: ABCG1 mRNA level in treated subject; format: in vivo; settings: one human subject; IV 500-1,000 mg/kg every 4 weeks as in Example 2; FIGS. 5A-5D
[2] = system: total cholesterol; assay: total cholesterol level in treated subject; format: in vivo; settings: one human subject; IV 500-1,000 mg/kg every 4 weeks as in Example 2; FIGS. 4A-4C
Text: (§1) The increased production of 24S-hydroxycholesterol and 27-hydroxycholesterol enhance cholesterol metabolism, by acting as endogenous ligands for LXR transcription factors responsible for an anti-inflammatory gene signature.

[3] = system: 27-hydroxycholesterol; assay: plasma level of 27-hydroxycholesterol in treated subject; format: in vivo; settings: one human subject; IV 500-1,000 mg/kg every 4 weeks as in Example 2; FIGS. 4A-4C
Text: as §1

[4] = system: cholesterol crystals; assay: CCDC of pre-dose blood plasma incubated ex vivo with 2-hydroxypropyl-beta-cyclodextrin; design: species or system human; settings: pre-dose plasma treated ex vivo with 2-hydroxypropyl-beta-cyclodextrin; FIG. 3B
Description: (§2) For each dose, whole blood was collected pre-dose, post-dose (line flush), 1 hour post-dose, and 24 hours post-dose. Plasma was separated from the whole blood and subjected to a cholesterol crystal dissolution capacity (CCDC) assay using techniques similar to those described in the literature. The CCDC assay measures the ability of a sample to dissolve cholesterol crystals.

[5] = system: cholesterol crystals; assay: cholesterol crystal dissolution capacity (CCDC) assay of plasma from treated subject; format: in vivo; settings: one human subject; single-ascending IV doses 500, 750, 1,000, 1,000 mg/kg every 4 weeks; plasma pre-dose, post-dose, 1 hour and 24 hours post-dose; FIG. 3A
Description: as §2

[6] = system: ABCA1; assay: ABCA1 mRNA level in treated subject; format: in vivo; settings: one human subject; IV 500-1,000 mg/kg every 4 weeks as in Example 2; FIGS. 5A-5D
[7] = system: 24S-hydroxycholesterol; assay: plasma level of 24S-hydroxycholesterol in treated subject; format: in vivo; settings: one human subject; IV 500-1,000 mg/kg every 4 weeks as in Example 2; FIGS. 4A-4C
Text: as §1

Substance: 2-hydroxypropyl-beta-cyclodextrin
- ABCG1 mRNA levels [1]: increased mRNA levels
- total cholesterol levels [2]: remained stable
- plasma level of 27-hydroxycholesterol [3]: increased plasma levels
- capacity of plasma to dissolve cholesterol crystals [4]: increased capacity to dissolve cholesterol crystals
- capability of blood plasma to dissolve cholesterol crystals (CCDC) [5]: increased capability of blood plasma to dissolve cholesterol crystals
- ABCA1 mRNA levels [6]: increased mRNA levels
- plasma level of 24S-hydroxycholesterol [7]: increased plasma levels

Source: patent US20240000826A1, “METHODS FOR THE TREATMENT OF CARDIOVASCULAR DISEASE WITH CYCLODEXTRINS” (Beren Therapeutics P.B.C., priority 2020, published 2024)
